Reference: patent US7700631B2, “Phosphodiesterase 4 inhibitors” (Memory Pharmaceuticals Corporation, priority 2002, dated 2010)

Assays:
rats [1] = experiment: Passive Avoidance in Rats, an in vivo Test for Learning and Memory; set-up: species or system rat; settings: MK-801 0.1 mg/kg, compared to the vehicle, p<0.001, 24 hours after shock
Protocol: The test was performed as previously described (Zhang, H.-T., Crissman, A. M., Dorairaj, N. R., Chandler, L. J., and O'Donnell, J. M., Neuropsychopharmacology, 2000, 23, 198-204.). The apparatus (Model E10-16SC, Coulbourn Instruments, Allentown, Pa.) consisted of a two-compartment chamber with an illuminated compartment connected to a darkened compartment by a guillotine door. The floor of the darkened compartment consisted of stainless steel rods through which an electric foot-shock could be delivered from a constant current source. All experimental groups were first habituated to the apparatus the day before the start of the experiment. During the training, the rat (Male Spraque-Dawley (Harlan) weighing 250 to 350 g) was placed in the illuminated compartment facing away from the closed guillotine door for 1 minute before the door was raised. The latency for entering the darkened compartment was recorded. After the rat entered the darkened compartment, the door was closed and a 0.5 mA electric shock was administered for 3 seconds. […] The latency for entering the darkened compartment was recorded for up to 180 seconds, at which time the trial was terminated.
(§1) All data were analyzed by analyses of variance (ANOVA); individual comparisons were made using Kewman-Keuls tests. […]

rats [2] = experiment: Radial Arm Maze Task in Rats, an In Vivo Test for Learning and Memory; set-up: species or system rat; settings: MK-801 0.1 mg/kg i.p., compared to control, p<0.01
Protocol: The test was performed as previously described (Zhang, H.-T., Crissman, A. M., Dorairaj, N. R., Chandler, L. J., and O'Donnell, J. M., Neuropsychopharmacology, 2000, 23, 198-204.). Five days after initial housing, rats (male Spraque-Dawley (Harlan) weighing 250 to 350 g) were placed in the eight-arm radial maze (each arm was 60×10×12 cm high; the maze was elevated 70 cm above the floor) for acclimation for two days. Rats were then placed individually in the center of the maze for 5 minutes with food pellets placed close to the food wells, and then, the next day, in the wells at the end of the arms; 2 sessions a day were conducted. Next, four randomly selected arms were then baited with one pellet of food each. The rat was restricted to the center platform (26 cm in diameter) for 15 seconds and then allowed to move freely throughout the maze until it collected all pellets of food or 10 minutes passed, whichever came first. Four parameters were recorded: 1) working memory errors, i.e., entries into baited arms that had already been visited during the same trial; 2) reference memory errors, i.e., entries into unbaited arms; 3) total arm entries; and 4) the test duration (seconds), i.e., the time spent in the collection of all the pellets in the maze. […]
as §1

Question: What does the source list for `C[C@]12N[C@H](Cc3ccccc31)c1ccccc12` [MK-801]?
Answer: latency for entering the darkened compartment (rats [1]): markedly reduced this latency; frequencies of working and reference memory errors (rats [2]): increased the frequencies of both working and reference memory errors
